# From ChEMBL document CHEMBL5131437, “Development of novel 2-aminoalkyl-6-(2-hydroxyphenyl)pyridazin-3(2H)-one derivatives as balanced multifunctional agents against Alzheimer's disease” (Eur J Med Chem, 2022)
# Experiments:
# [1] = test system: Butyrylcholinesterase (Rattus norvegicus); assay: Inhibition of rat serum BuChE at 10 uM by Ellman's method relative to control
# [2] = Antioxidant activity of compound assessed as trolox equivalent of ORAC radical scavenging activity by ORAC-FL assay; assay type: functional
# Acetylcholinesterase = Acetylcholinesterase (Electrophorus electricus, UniProt O42275); assay: Inhibition of electric eel AChE by Ellman's method
# Acetylcholinesterase, sequence (O42275 whole entry): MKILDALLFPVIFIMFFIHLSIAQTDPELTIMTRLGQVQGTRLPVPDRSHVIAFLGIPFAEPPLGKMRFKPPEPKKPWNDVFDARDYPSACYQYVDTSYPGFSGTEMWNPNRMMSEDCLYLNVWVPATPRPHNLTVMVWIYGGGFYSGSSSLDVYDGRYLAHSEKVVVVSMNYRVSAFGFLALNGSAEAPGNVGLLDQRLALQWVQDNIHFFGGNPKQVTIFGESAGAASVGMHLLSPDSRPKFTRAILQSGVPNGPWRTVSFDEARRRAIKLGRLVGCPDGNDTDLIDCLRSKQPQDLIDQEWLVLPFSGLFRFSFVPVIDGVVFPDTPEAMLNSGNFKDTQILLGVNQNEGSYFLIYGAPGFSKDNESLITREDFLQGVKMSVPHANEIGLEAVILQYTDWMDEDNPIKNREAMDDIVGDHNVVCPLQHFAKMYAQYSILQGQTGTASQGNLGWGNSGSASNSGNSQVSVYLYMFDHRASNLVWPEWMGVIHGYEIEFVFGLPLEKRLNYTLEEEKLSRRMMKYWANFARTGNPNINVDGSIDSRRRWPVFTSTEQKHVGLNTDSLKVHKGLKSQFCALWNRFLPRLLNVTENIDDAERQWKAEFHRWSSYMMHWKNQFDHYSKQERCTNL
# [3] = target: Amyloid-beta precursor protein (Homo sapiens) (UniProt P05067); assay: Inhibition of self-induced amyloid beta (1 to 42) (unknown origin) aggregation by Thioflavin T based fluorometric assay relative to control; parameters: concentration or dose not given beside the values; conditions: concentration not given here
# Amyloid-beta precursor protein (Homo sapiens), sequence (P05067 whole entry): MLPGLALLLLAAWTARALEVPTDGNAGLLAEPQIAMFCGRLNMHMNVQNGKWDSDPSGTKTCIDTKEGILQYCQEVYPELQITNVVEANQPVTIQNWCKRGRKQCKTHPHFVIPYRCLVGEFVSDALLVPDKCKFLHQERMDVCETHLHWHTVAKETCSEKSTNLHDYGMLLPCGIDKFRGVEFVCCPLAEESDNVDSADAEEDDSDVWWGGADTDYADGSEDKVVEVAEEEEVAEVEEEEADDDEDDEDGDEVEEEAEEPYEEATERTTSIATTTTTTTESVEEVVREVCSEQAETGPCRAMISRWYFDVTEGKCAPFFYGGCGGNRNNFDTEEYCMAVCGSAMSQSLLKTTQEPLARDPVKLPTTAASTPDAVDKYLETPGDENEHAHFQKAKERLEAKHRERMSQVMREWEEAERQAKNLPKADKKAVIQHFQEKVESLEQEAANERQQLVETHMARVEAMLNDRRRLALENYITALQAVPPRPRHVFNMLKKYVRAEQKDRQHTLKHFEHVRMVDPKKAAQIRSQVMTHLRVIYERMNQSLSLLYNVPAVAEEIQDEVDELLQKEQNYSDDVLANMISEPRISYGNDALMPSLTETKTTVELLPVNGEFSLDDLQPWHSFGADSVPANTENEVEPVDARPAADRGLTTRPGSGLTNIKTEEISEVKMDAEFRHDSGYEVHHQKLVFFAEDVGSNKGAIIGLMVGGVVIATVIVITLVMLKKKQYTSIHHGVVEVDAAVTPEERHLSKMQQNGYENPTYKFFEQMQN
# [4] = target: Acetylcholinesterase (Electrophorus electricus) (UniProt O42275); assay: Inhibition of electric eel AChE at 10 uM by Ellman's method relative to control
# Acetylcholinesterase (Electrophorus electricus), sequence (O42275 24-633 limits assumed): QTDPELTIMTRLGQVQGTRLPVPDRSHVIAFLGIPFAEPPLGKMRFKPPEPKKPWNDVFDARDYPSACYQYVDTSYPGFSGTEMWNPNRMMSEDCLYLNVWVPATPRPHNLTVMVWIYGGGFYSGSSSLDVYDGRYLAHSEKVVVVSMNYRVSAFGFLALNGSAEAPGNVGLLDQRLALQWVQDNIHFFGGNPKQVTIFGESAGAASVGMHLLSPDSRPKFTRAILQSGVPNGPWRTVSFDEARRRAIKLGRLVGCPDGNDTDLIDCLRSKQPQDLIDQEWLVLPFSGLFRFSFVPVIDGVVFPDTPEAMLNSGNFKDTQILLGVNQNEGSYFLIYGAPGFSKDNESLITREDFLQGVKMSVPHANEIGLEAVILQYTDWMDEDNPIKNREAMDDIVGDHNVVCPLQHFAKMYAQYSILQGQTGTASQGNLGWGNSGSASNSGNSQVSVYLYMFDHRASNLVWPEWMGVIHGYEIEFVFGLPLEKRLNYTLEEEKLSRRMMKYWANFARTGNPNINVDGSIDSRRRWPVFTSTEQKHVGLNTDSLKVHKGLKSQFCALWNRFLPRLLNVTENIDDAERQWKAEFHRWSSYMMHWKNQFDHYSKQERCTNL
# [5] = target: Amyloid-beta precursor protein (Homo sapiens) (UniProt P05067); assay: Inhibition of self-induced amyloid beta (1 to 42) (unknown origin) disaggregation by Thioflavin T based fluorometric assay relative to control; parameters: concentration or dose not given beside the values; conditions: concentration not given here
Structure (SMILES),inhibition [1],Activity [2],IC50 (Acetylcholinesterase; read-out: IC50),inhibition [3],inhibition [4],inhibition [5],IC50 (Acetylcholinesterase; read-out: pIC50 (converted))
CCN(CCCCCCn1nc(-c2cc(Cl)ccc2O)ccc1=O)Cc1ccccc1N(C)C,27.3%,1.09,740 nM,,,,
CCN(CCCCCCn1nc(-c2ccccc2O)ccc1=O)Cc1ccc(N(C)C)cc1,< 5%,3.63,9210 nM,51.9%,,,
CCN(CCCCCCn1nc(-c2ccccc2O)ccc1=O)Cc1ccccc1Cl,19.6%,1.72,2310 nM,,,,
CCN(CCCCCCn1nc(-c2ccccc2O)ccc1=O)Cc1ccccc1,25.7%,2.96,910 nM,15.4%,,,
CCN(CCCCCCn1nc(-c2cc(Br)ccc2O)ccc1=O)Cc1ccccc1OC,34.2%,1.53,880 nM,,,,
CCN(CCCCCCn1nc(-c2ccc(F)cc2O)ccc1=O)Cc1ccccc1N(C)C,27.3%,1.09,1180 nM,,,,
CCN(CCCCCCn1nc(-c2cc(NC(C)=O)ccc2O)ccc1=O)Cc1cccc(F)c1,17.7%,2.1,69 nM,38.8%,,,
CCN(CCCCCCn1nc(-c2ccc(OC)cc2O)ccc1=O)Cc1ccccc1N(C)C,19.2%,3.55,1590 nM,34.3%,,,
CCN(CCCn1nc(-c2ccccc2O)ccc1=O)Cc1ccccc1,< 5%,3.29,,,18.5%,,
CN(CCCn1nc(-c2ccccc2O)ccc1=O)Cc1ccccc1,< 5%,1.71,,,36.7%,,
CCN(CCCCCCn1nc(-c2ccccc2O)ccc1=O)Cc1ccc(F)cc1,9.3%,2.26,8580 nM,,,,
CCN(CCCCCCn1nc(-c2cc([N+](=O)[O-])ccc2O)ccc1=O)Cc1ccccc1OC,31.8%,0.27,1160 nM,,,,
O=c1ccc(-c2ccccc2O)n[nH]1,< 5%,2.15,,,,,
CCN(CCCn1nc(-c2ccccc2O)ccc1=O)Cc1ccccc1N(C)C,< 5%,2.3,,34.7%,32.4%,,
CCN(CCCCCCn1nc(-c2cc([N+](=O)[O-])ccc2O)ccc1=O)Cc1ccccc1N(C)C,28.3%,0.42,460 nM,,,,
CCN(CCCCCCCCn1nc(-c2cc(NC(C)=O)ccc2O)ccc1=O)Cc1ccccc1N(C)C,36.4%,3.56,2720 nM,95.2%,,,
CCN(CCCCCCn1nc(-c2cc(NC(C)=O)ccc2O)ccc1=O)Cc1ccccc1N(C)C,14.4%,2.61,86 nM,44%,,38.4%,
CCN(CCCCCCCCn1nc(-c2cc(N(C)C)ccc2O)ccc1=O)Cc1ccccc1N(C)C,32.1%,3.31,16500 nM,97.4%,,86.9%,
CCN(CCCCCCn1nc(-c2cc(OC)ccc2O)ccc1=O)Cc1ccccc1N(C)C,13.4%,1.81,330 nM,56.4%,,50.5%,
O=c1ccc(-c2ccccc2O)nn1CCCCCCN1CCc2ccccc2C1,21.7%,2.58,2580 nM,,,,

Structure (SMILES),inhibition [1],Activity [2],IC50 (Acetylcholinesterase; read-out: IC50),inhibition [3],inhibition [4],inhibition [5],IC50 (Acetylcholinesterase; read-out: pIC50 (converted))
CCN(CCCCCCn1nc(-c2cc(C)ccc2O)ccc1=O)Cc1ccccc1OC,38.9%,1.38,1650 nM,,,,
CCN(CCCCCCn1nc(-c2cc(Cl)ccc2O)ccc1=O)Cc1cccc(F)c1,15.8%,0.84,1430 nM,,,,
O=c1ccc(-c2ccccc2O)nn1CCCCCCN1CCCC1,15.7%,2.98,1600 nM,,,,
CCN(CCCCCCOc1ccc(-c2cc(N(C)C)ccc2O)nn1)Cc1cccc(F)c1,19.3%,1.29,2270 nM,96.3%,,85.1%,
CCN(CCCCCCn1nc(-c2cc(N(C)C)ccc2O)ccc1=O)Cc1cccc(F)c1,15%,2.34,350 nM,97%,,80.7%,
CCN(CCCCCCn1nc(-c2cc(Cl)ccc2O)ccc1=O)Cc1ccccc1OC,24.3%,0.96,9250 nM,,,,
CCN(CCCCCCn1nc(-c2cc(F)ccc2O)ccc1=O)Cc1cccc(F)c1,33%,0.75,250 nM,33.8%,,,
O=c1ccc(-c2ccccc2O)nn1CCCN1CCCCC1,< 5%,2.32,,,27.1%,,
CCN(CCCCCCn1nc(-c2cc(F)ccc2O)ccc1=O)Cc1ccccc1OC,31.8%,0.84,570 nM,30.2%,,25.2%,
CCN(CCCCCCOc1ccc(-c2ccccc2O)nn1)Cc1cccc(F)c1,18.5%,0.54,4260 nM,26.4%,,,
O=c1ccc(-c2ccccc2O)nn1CCCCCCN1CCOCC1,< 5%,3.13,,,16.1%,,
CCN(CCCCCCOc1ccc(-c2cc(N(C)C)ccc2O)nn1)Cc1ccccc1N(C)C,16.6%,2.28,2180 nM,95.2%,,85.4%,
CCN(CCCCCCn1nc(-c2ccccc2O)ccc1=O)Cc1ccccc1OC,24.5%,2.76,740 nM,36.1%,,,372 nM
CCN(CCCCCCn1nc(-c2cc(Br)ccc2O)ccc1=O)Cc1ccccc1N(C)C,32.2%,1.48,250 nM,,,,
CCN(CCCCCCn1nc(-c2ccc(N(C)C)cc2O)ccc1=O)Cc1ccccc1N(C)C,17.6%,2.49,2160 nM,71.3%,,67.8%,
O=c1ccc(-c2ccccc2O)nn1CCCN1CCCC1,< 5%,2.83,,,30.3%,,
CCN(CCCCCCn1nc(-c2cc(F)ccc2O)ccc1=O)Cc1ccccc1N(C)C,28.8%,0.82,160 nM,30.3%,,26.1%,
CCN(CCCCCCn1nc(-c2cc(OC)ccc2O)ccc1=O)Cc1ccccc1OC,27.3%,1.96,630 nM,,,,
CCN(CC)CCCn1nc(-c2ccccc2O)ccc1=O,< 5%,2.54,,33.7%,17.4%,,
CCN(CCCCCCn1nc(-c2ccccc2O)ccc1=O)Cc1cccc(Cl)c1,17.6%,1.56,2930 nM,,,,

Structure (SMILES),inhibition [1],Activity [2],IC50 (Acetylcholinesterase; read-out: IC50),inhibition [3],inhibition [4],inhibition [5],IC50 (Acetylcholinesterase; read-out: pIC50 (converted))
CCN(CCCCCCn1nc(-c2cc(Br)ccc2O)ccc1=O)Cc1cccc(F)c1,12.9%,0.98,2570 nM,,,,
COc1ccccc1CN(C)CCCn1nc(-c2ccccc2O)ccc1=O,< 5%,3.15,,,17.6%,,
CCN(CCCCCCn1nc(-c2ccccc2O)ccc1=O)Cc1ccccc1C,13.6%,2.54,2540 nM,,,,
CCN(CCCn1nc(-c2ccccc2O)ccc1=O)Cc1ccccc1OC,< 5%,2.9,,,15.6%,,
CCN(CCCCCCn1nc(-c2cccc(N(C)C)c2O)ccc1=O)Cc1ccccc1N(C)C,18.8%,2.03,4780 nM,57.9%,,53%,
CCN(CCCCCCn1nc(-c2cc(C)ccc2O)ccc1=O)Cc1ccccc1N(C)C,23.9%,1.26,280 nM,,,,
CCN(CCCCCCn1nc(-c2cc(C)ccc2O)ccc1=O)Cc1cccc(F)c1,29.2%,1.14,890 nM,,,,
CCN(CCCCCCn1nc(-c2cc(OC)ccc2O)ccc1=O)Cc1cccc(F)c1,17.4%,1.95,2300 nM,,,,
COc1ccccc1CN(C)CCCCCCn1nc(-c2ccccc2O)ccc1=O,22.6%,2.89,1070 nM,30.9%,,,85.1 nM
CN(CCCCCCn1nc(-c2ccccc2O)ccc1=O)Cc1ccccc1,28.6%,2.78,930 nM,,,,
CCN(CCCCCCn1nc(-c2ccccc2O)ccc1=O)Cc1ccccc1F,15.7%,2.43,1030 nM,27.4%,,,
CCN(CCCCCCOc1ccc(-c2ccccc2O)nn1)Cc1ccc(F)cc1,< 5%,0.61,49000 nM,,,,
CCN(CC)CCCCCCn1nc(-c2ccccc2O)ccc1=O,13.4%,2.69,2480 nM,33.8%,,,
O=c1ccc(-c2ccccc2O)nn1CCCN1CCOCC1,< 5%,2.82,,,22.7%,,
CCN(CCCCCCn1nc(-c2cc([N+](=O)[O-])ccc2O)ccc1=O)Cc1cccc(F)c1,33.3%,0.29,1000 nM,,,,
CCN(CCCCCCn1nc(-c2cc(N(C)C)ccc2O)ccc1=O)Cc1ccccc1OC,16.7%,2.17,1210 nM,93.9%,,79.2%,
CCN(CCCn1nc(-c2ccccc2O)ccc1=O)Cc1cccc(F)c1,< 5%,3.09,,,18.7%,,
O=c1ccc(-c2ccccc2O)nn1CCCCCCN1CCCCC1,25.6%,3.34,4560 nM,,,,
CCN(CCCCCCn1nc(-c2cc(NC(C)=O)ccc2O)ccc1=O)Cc1ccccc1OC,8.02%,2.06,370 nM,42.6%,,38.7%,
